Results: article PMC10282079, “Design, synthesis, in vitro anti-α-glucosidase evaluations, and computational studies of new phthalimide-phenoxy-1,2,3-triazole-N-phenyl (or benzyl) acetamides as potential anti-diabetic agents” (Scientific Reports, 2023)

Key:
yeast α-glucosidase = target: T1, yeast α-glucosidase (Saccharomyces cerevisiae, UniProt P53341); test: biochemical; assay type: biochemical; conditions: for α-glucosidase inhibitory activity in words: SAR discussion of Table 1; for IC50: yeast α-glucosidase, mean ± SD of three independent experiments
T1 construct: purchased Sigma-Aldrich
T1 sequence (P53341 whole entry): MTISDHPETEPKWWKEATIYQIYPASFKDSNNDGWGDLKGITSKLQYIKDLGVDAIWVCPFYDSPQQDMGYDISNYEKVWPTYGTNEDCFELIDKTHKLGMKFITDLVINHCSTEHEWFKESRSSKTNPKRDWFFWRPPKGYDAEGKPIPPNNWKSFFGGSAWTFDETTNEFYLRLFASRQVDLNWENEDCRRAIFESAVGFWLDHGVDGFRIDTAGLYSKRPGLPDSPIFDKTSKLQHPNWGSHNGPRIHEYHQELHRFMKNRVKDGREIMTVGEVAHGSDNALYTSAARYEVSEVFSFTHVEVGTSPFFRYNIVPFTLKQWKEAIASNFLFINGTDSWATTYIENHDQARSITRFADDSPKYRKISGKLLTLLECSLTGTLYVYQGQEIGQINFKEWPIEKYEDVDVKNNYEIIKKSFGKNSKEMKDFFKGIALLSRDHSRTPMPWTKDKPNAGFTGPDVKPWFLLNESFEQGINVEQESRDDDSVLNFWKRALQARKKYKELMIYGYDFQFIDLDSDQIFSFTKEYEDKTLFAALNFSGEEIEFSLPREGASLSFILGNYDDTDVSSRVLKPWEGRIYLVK
Experimental: The in vitro enzymatic inhibitory activity of phthalimide-phenoxy-1,2,3-triazole-N-phenyl (or benzyl) acetamide 11a–n was evaluated against yeast α-glucosidase.
The change in absorbance was measured at 405 nm using by a standard spectrophotometer (Gen5, Power wave xs2, BioTek, America).

α-glucosidase = target: T2, α-glucosidase (Saccharomyces cerevisiae, UniProt P53341); test: Kinetic study of α-glucosidase inhibition (Lineweaver–Burk); assay type: biochemical
T2 construct: purchased Sigma-Aldrich
T2 sequence (P53341 whole entry): as above
Experimental: For this purpose, the reaction rates in the presence of different concentrations of compound 11j were measured in various concentrations of substrate (p-nitrophenyl-a-D-glucopyranoside). Graphs of different concentrations of inhibitor were drawn by the Lineweaver–Burk plot (Fig. 2a). […] The Ki value was calculated directly by plotting the slope of each line in the Lineweaver–Burk plots into the different concentrations of compound 11j (Fig. 2b).
The 20 µL of α-glucosidase solution (1 U/mL) was incubated with different concentrations of compound 11j (0, 12, 23 and 46 µM) for 15 min at 30 °C. The reaction was then started by adding different concentrations of substrate (1–10 mM) and change in absorbance was measured for 20 min at 405 nm using by spectrophotometer (Gen5, Power wave xs2, BioTek, America).

Cc1cccc(C)c1NC(=O)Cn1cc(COc2ccc(N3C(=O)c4ccccc4C3=O)cc2)nn1 [Compound 11c, N-(2,6-dimethylphenyl)-2-(4-((4-(1,3-dioxoisoindolin-2-yl)phenoxy)methyl)-1H-1,2,3-triazol-1-yl)acetamide]
α-glucosidase inhibitory activity in words (yeast α-glucosidase): inactive
melting point: 209 to 211 °C

O=C(Cn1cc(COc2ccc(N3C(=O)c4ccccc4C3=O)cc2)nn1)NCc1ccccc1 [Compound 11m, N-benzyl-2-(4-((4-(1,3-dioxoisoindolin-2-yl)phenoxy)methyl)-1H-1,2,3-triazol-1-yl)acetamide]
α-glucosidase inhibitory activity in words (yeast α-glucosidase): inactive
IC50 (yeast α-glucosidase): > 750 µM
melting point: 201 to 203 °C

O=C(Cn1cc(COc2ccc(N3C(=O)c4ccccc4C3=O)cc2)nn1)Nc1c(Cl)cccc1Cl [Compound 11i, N-(2,6-dichlorophenyl)-2-(4-((4-(1,3-dioxoisoindolin-2-yl)phenoxy)methyl)-1H-1,2,3-triazol-1-yl)acetamide]
IC50 (yeast α-glucosidase): 46.2 ± 0.89 µM
melting point: 202 to 204 °C

O=C(Cn1cc(COc2ccc(N3C(=O)c4ccccc4C3=O)cc2)nn1)Nc1cccc(Cl)c1Cl [Compound 11g, N-(2,3-dichlorophenyl)-2-(4-((4-(1,3-dioxoisoindolin-2-yl)phenoxy)methyl)-1H-1,2,3-triazol-1-yl)acetamide]
α-glucosidase inhibitory activity in words (yeast α-glucosidase): moderate anti-α-glucisidase activity
IC50 (yeast α-glucosidase): 239.1 ± 0.41 µM
melting point: 203 to 205 °C

O=C(Cn1cc(COc2ccc(N3C(=O)c4ccccc4C3=O)cc2)nn1)NCc1ccc(F)cc1 [Compound 11n, 2-(4-((4-(1,3-dioxoisoindolin-2-yl)phenoxy)methyl)-1H-1,2,3-triazol-1-yl)-N-(4-fluorobenzyl)acetamide]
IC50 (yeast α-glucosidase): 685.99 ± 0.32 µM
melting point: 204 to 206 °C

O=C(Cn1cc(COc2ccc(N3C(=O)c4ccccc4C3=O)cc2)nn1)Nc1ccccc1 [Compound 11a, 2-(4-((4-(1,3-dioxoisoindolin-2-yl)phenoxy)methyl)-1H-1,2,3-triazol-1-yl)-N-phenylacetamide]
IC50 (yeast α-glucosidase): 203.8 ± 0.32 µM
melting point: 218 to 220 °C

O=C(Cn1cc(COc2ccc(N3C(=O)c4ccccc4C3=O)cc2)nn1)Nc1ccc([N+](=O)[O-])cc1 [Compound 11k, 2-(4-((4-(1,3-dioxoisoindolin-2-yl)phenoxy)methyl)-1H-1,2,3-triazol-1-yl)-N-(4-nitrophenyl)acetamide]
α-glucosidase inhibitory activity in words (yeast α-glucosidase): complete loss of inhibitory activity
IC50 (yeast α-glucosidase): > 750 µM
melting point: 260 to 262 °C

O=C(Cn1cc(COc2ccc(N3C(=O)c4ccccc4C3=O)cc2)nn1)Nc1ccc(Br)cc1 [Compound 11j, N-(4-bromophenyl)-2-(4-((4-(1,3-dioxoisoindolin-2-yl)phenoxy)methyl)-1H-1,2,3-triazol-1-yl)acetamide]
Inhibition mode (α-glucosidase; Lineweaver–Burk plot): competitive inhibitor
Ki (α-glucosidase; secondary re-plot of Lineweaver–Burk slopes, substrate p-nitrophenyl-a-D-glucopyranoside): 50.4 µM
α-glucosidase inhibitory activity in words (yeast α-glucosidase): moderate anti-α-glucisidase activity
IC50 (yeast α-glucosidase): 45.26 ± 0.03 µM
melting point: 237 to 239 °C

O=C(Cn1cc(COc2ccc(N3C(=O)c4ccccc4C3=O)cc2)nn1)Nc1cccc(Cl)c1 [Compound 11f, N-(3-chlorophenyl)-2-(4-((4-(1,3-dioxoisoindolin-2-yl)phenoxy)methyl)-1H-1,2,3-triazol-1-yl)acetamide]
IC50 (yeast α-glucosidase): 112.16 ± 0.03 µM
melting point: 210 to 212 °C

Cc1cc([N+](=O)[O-])ccc1NC(=O)Cn1cc(COc2ccc(N3C(=O)c4ccccc4C3=O)cc2)nn1 [Compound 11l, 2-(4-((4-(1,3-dioxoisoindolin-2-yl)phenoxy)methyl)-1H-1,2,3-triazol-1-yl)-N-(2-methyl-4-nitrophenyl)acetamide]
IC50 (yeast α-glucosidase): 273.3 ± 0.28 µM
melting point: 228 to 230 °C

Cc1cccc(NC(=O)Cn2cc(COc3ccc(N4C(=O)c5ccccc5C4=O)cc3)nn2)c1C [Compound 11b, N-(2,3-dimethylphenyl)-2-(4-((4-(1,3-dioxoisoindolin-2-yl)phenoxy)methyl)-1H-1,2,3-triazol-1-yl)acetamide]
Fold less potent than compound 11a (yeast α-glucosidase; ratio of IC50 values): 1.8 fold
IC50 (yeast α-glucosidase): 366.1 ± 0.86 µM
melting point: 206 to 208 °C

O=C(Cn1cc(COc2ccc(N3C(=O)c4ccccc4C3=O)cc2)nn1)Nc1cccc(F)c1 [Compound 11e, 2-(4-((4-(1,3-dioxoisoindolin-2-yl)phenoxy)methyl)-1H-1,2,3-triazol-1-yl)-N-(3-fluorophenyl)acetamide]
IC50 (yeast α-glucosidase): 188.3 ± 0.27 µM
melting point: 204 to 206 °C

O=C(Cn1cc(COc2ccc(N3C(=O)c4ccccc4C3=O)cc2)nn1)Nc1ccc(Cl)cc1Cl [Compound 11h, N-(2,4-dichlorophenyl)-2-(4-((4-(1,3-dioxoisoindolin-2-yl)phenoxy)methyl)-1H-1,2,3-triazol-1-yl)acetamide]
IC50 (yeast α-glucosidase): 284 ± 0.41 µM
melting point: 232 to 234 °C

CCc1ccc(NC(=O)Cn2cc(COc3ccc(N4C(=O)c5ccccc5C4=O)cc3)nn2)cc1 [Compound 11d, 2-(4-((4-(1,3-dioxoisoindolin-2-yl)phenoxy)methyl)-1H-1,2,3-triazol-1-yl)-N-(4-ethylphenyl)acetamide]
α-glucosidase inhibitory activity in words (yeast α-glucosidase): significant decrease in the inhibitory activity
IC50 (yeast α-glucosidase): 491.68 ± 0.11 µM
melting point: 202 to 204 °C
